Reference: US10125100B2, “Kinase inhibitors” (Respivert Limited, priority 2014, dated 2018)
pIC50: −log10 of the molar value.

How the values were obtained:
[1] = system: Jurkat cells; assay: (r) Cell cytotoxicity assay; format: cell-based, human; conditions: 24 hours
Procedure, shortened: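 Jurkat cells (1×10^5/well, RPMI + 10% FBS) exposed to compound at 20, 5 or 1 μg/mL final (1.0% DMSO control) for 24 h at 37° C., 5% CO2. Then stained with 7.5 μg/mL propidium iodide for 15 min. % viability = PI-negative cells by flow cytometry, normalized to DMSO.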

[2] = target: Syk (Homo sapiens (Human), UniProt P43405); assay: Syk enzyme inhibition, Z-LYTE FRET; format: biochemical
Procedure, shortened: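 Syk or c-Src enzyme (3000 or 2000 ng/mL solutions) was preincubated 2 h at RT with compound solutions at 1, 0.1, 0.01 or 0.001 µg/mL. Z-LYTE FRET peptide (8 µM solution) and ATP (800 µM solution for c-Src, 60 µM for Syk) were then added for 1 h, followed by protease development for 1 h. Phosphorylation was read as the coumarin/fluorescein emission ratio.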

[3] = system: mitosis in PBMCs; assay: (g) Cell mitosis assay; format: cell-based; conditions: Homo sapiens, PBMC, 5 μg/mL
Method: Peripheral blood mononucleocytes (PBMCs) from healthy subjects are separated from whole blood (Quintiles, London, UK) using a density gradient (Histopaque®-1077, Sigma-Aldrich, Poole, UK). The PBMCs (3 million cells per sample) are subsequently treated with 2% PHA (phytohaemagglutinin, Sigma-Aldrich, Poole, UK) for 48 hr, followed by a 20 hr exposure to varying concentrations of test compounds. At 2 hr before collection, PBMCs are treated with demecolcine (0.1 μg/mL; Invitrogen, Paisley, UK) to arrest cells in metaphase. To observe mitotic cells, PBMCs are permeabilized and fixed by adding Intraprep (50 μL; Beckman Coulter, France), and stained with anti-phospho-histone 3 ([…]; #9701; Cell Signalling, Danvers, Mass.) and propidium iodide (1 mg/mL; Sigma-Aldrich, Poole, UK) as previously described (Muehlbauer P. A. and Schuler M. J., Mutation Research, 2003, 537:117-130). Fluorescence is observed using an ATTUNE flow cytometer (Invitrogen, Paisley, UK), gating for lymphocytes.

[4] = target: c-Src (Homo sapiens (Human), UniProt P12931); assay: c-Src enzyme inhibition, Z-LYTE FRET; format: biochemical
Procedure, shortened: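 Human Syk and c-Src (enzyme at 2000 or 3000 ng/mL respectively, pre-dilution) preincubated 2 hr at RT with compound at 1, 0.1, 0.01 or 0.001 μg/mL; FRET peptide added with ATP (60 μM Syk, 800 μM c-Src; solution concentrations), 1 hr. Protease development 1 hr; phosphorylation from coumarin/fluorescein emission ratio.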

[5] = target: p38 MAPKα (MAPK14) (Homo sapiens (Human), UniProt Q16539); assay: p38 MAPKα enzyme inhibition (Method 2), Z-LYTE FRET; format: biochemical
Method: The enzyme inhibitory activities of compounds disclosed herein are determined by FRET using synthetic peptides labelled with both donor and acceptor fluorophores (Z-LYTE, Invitrogen Ltd., Paisley, UK).
The following two assay variants can be used for determination of p38 MAPKα inhibition.
The inhibitory activities of test compounds against the p38 MAPKα isoform (MAPK14: Invitrogen) are evaluated indirectly by determining the level of activation/phosphorylation of the down-stream molecule, MAPKAP-K2. The p38 MAPKα protein (80 ng/mL, 2.5 μL) is mixed with the test compound (2.5 μL of either 4 μg/mL, 0.4 μg/mL, 0.04 μg/mL or 0.004 μg/mL) for 2 hr at RT. […] The mixture is incubated for 1 hr at RT. Development reagent (protease, 5 μL) is added for 1 hr prior to detection in a fluorescence microplate reader (Varioskan® Flash, ThermoFisher Scientific).
This method follows the same steps as Method 1 above, but utilises a higher concentration of the p38 MAPKα protein (2.5 μL of 200 ng/mL protein instead of 2.5 μL of 80 ng/mL protein) for mixing with the test compound (tested at either 1 μg/mL, 0.1 μg/mL, 0.01 μg/mL or 0.001 μg/mL).
In all cases, the site-specific protease cleaves non-phosphorylated peptide only and eliminates the FRET signal. Phosphorylation levels of each reaction are calculated using the ratio of coumarin emission (donor) over fluorescein emission (acceptor), for which high ratios indicate high phosphorylation and low ratios indicate low phosphorylation levels.

c-Src, sequence (P12931 whole entry, looked up): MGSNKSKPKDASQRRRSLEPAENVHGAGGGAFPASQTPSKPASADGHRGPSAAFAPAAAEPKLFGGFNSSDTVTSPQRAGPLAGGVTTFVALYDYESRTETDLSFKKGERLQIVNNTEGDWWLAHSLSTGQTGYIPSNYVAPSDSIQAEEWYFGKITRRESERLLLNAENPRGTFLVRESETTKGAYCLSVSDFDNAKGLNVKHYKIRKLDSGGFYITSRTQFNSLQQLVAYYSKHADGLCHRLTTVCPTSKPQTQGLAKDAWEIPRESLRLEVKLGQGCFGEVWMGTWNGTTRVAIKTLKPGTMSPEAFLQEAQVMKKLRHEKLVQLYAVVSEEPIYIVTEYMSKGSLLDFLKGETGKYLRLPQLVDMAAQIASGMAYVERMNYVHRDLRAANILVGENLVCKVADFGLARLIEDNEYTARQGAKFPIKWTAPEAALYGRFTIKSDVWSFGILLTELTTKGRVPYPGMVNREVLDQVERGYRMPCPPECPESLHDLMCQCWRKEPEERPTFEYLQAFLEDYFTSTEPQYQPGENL
p38 MAPKα (MAPK14), sequence (Q16539 whole entry): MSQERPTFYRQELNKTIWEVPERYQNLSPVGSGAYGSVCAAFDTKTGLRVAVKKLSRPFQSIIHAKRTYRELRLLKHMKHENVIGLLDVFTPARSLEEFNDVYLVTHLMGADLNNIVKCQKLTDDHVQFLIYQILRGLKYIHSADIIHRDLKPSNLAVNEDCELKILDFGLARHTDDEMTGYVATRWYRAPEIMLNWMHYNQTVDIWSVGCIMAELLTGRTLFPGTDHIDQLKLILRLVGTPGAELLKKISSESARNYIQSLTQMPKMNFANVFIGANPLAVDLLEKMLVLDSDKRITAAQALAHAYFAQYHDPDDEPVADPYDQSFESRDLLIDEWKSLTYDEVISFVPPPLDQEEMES

SMILES	% Viability at 1 μg/mL [1] [%]	% Viability at 5 μg/mL [1] [%]	% Viability at 20 μg/mL [1] [%]	pIC50 [2]	inhibition at 5 µg/mL [3] [%]	pIC50 [4]	pIC50 [5]
COc1cc(Nc2cc(Oc3ccc(NC(=O)Nc4cc(C(C)(C)C)cc(NS(C)(=O)=O)c4OC)c4ccccc34)ccn2)ccc1C(=O)NCCOCCOCCO [Example 16, 4-[[4-[[4-[[5-tert-Butyl-3-(methanesulfonamido)-2-methoxy-phenyl]carbamoylamino]-1-naphthyl]oxy]-2-pyridyl]amino]-N-[2-[2-(2-hydroxyethoxy)ethoxy]ethyl]-2-methoxy-benzamide]	90.1	52.5	19.1	6.97	50.1	7.66	7.47
COCCOCCOCCS(=O)(=O)c1ccc(Nc2cc(Oc3ccc(NC(=O)Nc4cc(C(C)(C)C)cc(NS(C)(=O)=O)c4OC)c4ccccc34)ccn2)cc1OC [Example 12, 1-[5-tert-Butyl-3-(methanesulfonamido)-2-methoxy-phenyl]-3-[4-[[2-[3-methoxy-4-[2-[2-(2-methoxyethoxy)ethoxy]ethylsulfonyl]anilino]-4-pyridyl]oxy]-1-naphthyl]urea]	74.5	81.8	82.9	6.08	22.1	6.68	7.64
C#Cc1cc(Nc2cc(Oc3ccc(NC(=O)Nc4cc(C(C)(C)C)cc(NS(C)(=O)=O)c4OC)c4ccccc34)ccn2)ccc1C(=O)NCCN1CCOCC1 [Example 15, 4-[[4-[[4-[[5-tert-Butyl-3-(methanesulfonamido)-2-methoxy-phenyl]carbamoylamino]-1-naphthyl]oxy]-2-pyridyl]amino]-2-ethynyl-N-(2-morpholinoethyl)benzamide]	99.5	75.0	74.5	6.79	62.3	7.37	7.19
COc1cc(Nc2cc(Oc3ccc(NC(=O)Nc4cc(C(C)(C)C)cc(C(N)=O)c4OC)c4ccccc34)ccn2)ccc1C(=O)NCCN1CCOCC1 [Example 4, 4-((4-((4-(3-(5-(tert-Butyl)-3-carbamoyl-2-methoxyphenyl)ureido)naphthalen-1-yl)oxy)pyridin-2-yl)amino)-2-methoxy-N-(2-morpholinoethyl)benzamide]	–	–	–	6.56	46.2	7.43	6.92
COCCOCCOCCNC(=O)c1ccc(Nc2cc(Oc3ccc(NC(=O)Nc4cc(C(C)(C)C)cc(C(N)=O)c4OC)c4ccccc34)ccn2)cc1OC [Example 6, 4-((4-((4-(3-(5-(tert-Butyl)-3-carbamoyl-2-methoxyphenyl)ureido)naphthalen-1-yl)oxy)pyridin-2-yl)amino)-2-methoxy-N-(2-(2-(2-methoxyethoxy)ethoxy)ethyl)benzamide]	–	–	–	6.50	28.8	7.44	6.86
COc1cc(Nc2cc(Oc3ccc(NC(=O)Nc4cc(C(C)(C)C)cc(NS(C)(=O)=O)c4OC)c4ccccc34)ccn2)ccc1C(=O)NCCN1CCS(=O)(=O)CC1 [17(r), 4-[[4-[[4-[[5-tert-butyl-3-(methanesulfonamido)-2-methoxy-phenyl]carbamoylamino]-1-naphthyl]oxy]-2-pyridyl]amino]-N-[2-(1,1-dioxo-1,4-thiazinan-4-yl)ethyl]-2-methoxy-benzamide]	–	–	–	6.99	36.6	7.43	6.92
COc1cc(Nc2cc(Oc3ccc(NC(=O)Nc4cc(C(C)(C)C)cc(NS(C)(=O)=O)c4OC)c4ccccc34)ccn2)ccc1C(=O)NC1CCN(C)CC1 [17(j), 4-[[4-[[4-[[5-tert-butyl-3-(methanesulfonamido)-2-methoxy-phenyl]carbamoylamino]-1-naphthyl]oxy]-2-pyridyl]amino]-2-methoxy-N-(1-methyl-4-piperidyl)benzamide]	–	–	–	7.41	85.4	7.80	7.68
COc1cc(Nc2cc(Oc3ccc(NC(=O)Nc4cc(C(C)(C)C)cc(NS(C)(=O)=O)c4OC)c4ccccc34)ccn2)ccc1C(=O)NCCN1CCC(O)CC1 [17(m), 4-[[4-[[4-[[5-tert-butyl-3-(methanesulfonamido)-2-methoxy-phenyl]carbamoylamino]-1-naphthyl]oxy]-2-pyridyl]amino]-N-[2-(4-hydroxy-1-piperidyl)ethyl]-2-methoxy-benzamide]	–	–	–	6.72	80.5	7.72	7.60
COc1c(NC(=O)Nc2ccc(Oc3ccnc(Nc4ccc(OCCN5CCOCC5)c(C#N)c4)c3)c3ccccc23)cc(C(C)(C)C)cc1NS(C)(=O)=O [Example 9, N-(5-(tert-Butyl)-3-(3-(4-((2-((3-cyano-4-(2-morpholinoethoxy)phenyl)amino)pyridin-4-yl)oxy)naphthalen-1-yl)ureido)-2-methoxyphenyl)methanesulfonamide]	–	–	–	< 5.89	29.8	6.50	6.71
COc1cc(Nc2cc(Oc3ccc(NC(=O)Nc4cc(C(C)(C)C)cc(NS(C)(=O)=O)c4OC)c4ccccc34)ccn2)ccc1C(=O)NCCN1CCOCC1(C)C [17(k), 4-[[4-[[4-[[5-tert-butyl-3-(methanesulfonamido)-2-methoxy-phenyl]carbamoylamino]-1-naphthyl]oxy]-2-pyridyl]amino]-N-[2-(3,3-dimethylmorpholin-4-yl)ethyl]-2-methoxy-benzamide]	–	–	–	6.47	24	7.13	6.81
COCCOCCOCC[S+]([O-])c1ccc(Nc2cc(Oc3ccc(NC(=O)Nc4cc(C(C)(C)C)cc(NS(C)(=O)=O)c4OC)c4ccccc34)ccn2)cc1OC (stereo not shown) [Example 11, N-(5-(tert-Butyl)-2-methoxy-3-(3-(4-((2-((3-methoxy-4-((2-(2-(2-methoxyethoxy)ethoxy)ethyl)sulfinyl)phenyl)amino)pyridin-4-yl)oxy)naphthalen-1-yl)ureido)phenyl)methanesulfonamide]	–	–	–	6.50	26.6	7.12	7.46
COc1cc(Nc2cc(Oc3ccc(NC(=O)Nc4cc(C(C)(C)C)cc(NS(C)(=O)=O)c4OC)c4ccccc34)ccn2)ccc1C(=O)N[C@@H](C)CN1CCOCC1 [17(v), 4-[[4-[[4-[[5-tert-butyl-3-(methanesulfonamido)-2-methoxy-phenyl]carbamoylamino]-1-naphthyl]oxy]-2-pyridyl]amino]-2-methoxy-N-[(1S)-1-methyl-2-morpholino-ethyl]benzamide]	–	–	–	6.63	34.4	7.37	6.94
COc1cc(Nc2cc(Oc3ccc(NC(=O)Nc4cc(C(C)(C)C)cc(NS(C)(=O)=O)c4OC)c4ccccc34)ccn2)ccc1C(=O)NCCN1CC[S+]([O-])CC1 [Example 7, 4-((4-((4-(3-(5-(tert-Butyl)-2-methoxy-3-(methylsulfonamido)phenyl)ureido)naphthalen-1-yl)oxy)pyridin-2-yl)amino)-2-methoxy-N-(2-(1-oxidothiomorpholino)ethyl)benzamide]	–	–	–	6.97	59.9	7.68	7.23
